According to patent US11571444B2, “Enhancement of MSC immunomodulatory properties by treprostinil” (United Therapeutics Corporation, priority 2016, dated 2023):

How the values were obtained:
[1] = system: human bone marrow-derived MSC; assay: MSC morphology after 48 hours exposure (cytotoxic effect); assay type: cell-based; details: 48 hours of culture
Description: (§1) A single vial of human bone marrow-derived MSC was expanded and seeded using standard growth medium. At 95-99% confluency, cells were thoroughly washed with phosphate-buffered saline (PBS) and exposed to media containing treprostinil at doses ranging from 250 μg/mL to 0.004 μg/mL. After 48 hours of culture, cells were photographed and assessed for treatment-induced changes in morphology.

TNFα expression in MSC = assay: RNA analysis of pro-inflammatory cytokine TNFα in exposed MSC; assay type: cell-based, human; details: 48 hours
Description: as §1
(§2) Cells exposed to treprostinil ranging from 250 μg/mL-0.004 μg/mL as described in Example 1 were harvested. RNA of the cells was extracted and then analyzed for pro- and anti-inflammatory cytokines. Cytokines, or small proteins involved in both internal and secreted cell signaling, have been identified to play a role in the inflammatory pathogenesis of PAH (Groth et al., Respiratory Research, 15:47 (2014)).

IL10 expression in MSC = assay: RNA analysis of anti-inflammatory cytokine IL10 in exposed MSC; assay type: cell-based, human; details: 48 hours
Description: as §1, §2

IL13 expression in MSC = assay: RNA analysis of anti-inflammatory cytokine IL13 in exposed MSC; assay type: cell-based, human; details: 48 hours
Description: as §1, §2

IDO1 expression in MSC = assay: RNA analysis of immunosuppressive factor IDO1 in exposed MSC; assay type: cell-based, human; details: 48 hours
Description: as §1
(§3) RNA from MSCs exposed to treprostinil of from 250 μg/mL to 0.004 μg/mL was re-analyzed for several other anti-inflammatory factors.

iNOS expression in MSC = assay: RNA analysis of immunosuppressive factor iNOS in exposed MSC; assay type: cell-based, human; details: 48 hours
Description: as §1, §3

HLA expression in MSC = assay: RNA analysis of immunosuppressive factor HLA in exposed MSC; assay type: cell-based, human; details: 48 hours
Description: as §1, §3

TGFβ expression in MSC = assay: RNA analysis of immunosuppressive factor TGFβ in exposed MSC; assay type: cell-based, human; details: 48 hours
Description: as §1, §3

Structure (SMILES): CCCCC[C@H](O)CC[C@@H]1[C@H]2Cc3cccc(OCC(=O)O)c3C[C@H]2C[C@H]1O [treprostinil]
- MSC morphology (cytotoxic effect) ([1]; 83.3 μg/mL or lower): did not cause morphological changes associated with cell death
- MSC morphology (cytotoxic effect) ([1]; 250 μg/mL): rounded up and detached
- lowering of TNFα expression compared to control (TNFα expression in MSC; 0.3 μg/mL to 83.3 μg/mL): up to 4.7 fold
- TNFα over unexposed control (TNFα expression in MSC; 9.3 μg/mL): decreased
- increase of IL10 expression in MSC (IL10 expression in MSC; 9.3 μg/mL): 5.4 fold
- IL10 signaling over control (IL10 expression in MSC; increasing doses): increase
- IL13 over unexposed control (IL13 expression in MSC; 9.3 μg/mL): increased
- increase of IL13 expression in MSC (IL13 expression in MSC; 27.8 μg/mL): 8.8 fold
- IL13 signaling over control (IL13 expression in MSC; increasing doses): increase
- IDO over unexposed control (IDO1 expression in MSC; 9.3 μg/mL): increased
- IDO1 over control (IDO1 expression in MSC; increasing doses): robust increase
- iNOS over unexposed control (iNOS expression in MSC; 9.3 μg/mL): increased
- iNOS over control (iNOS expression in MSC; increasing doses): robust increase
- HLA over unexposed control (HLA expression in MSC; 9.3 μg/mL): increased
- HLA over control (HLA expression in MSC; increasing doses): robust increase
- TGFβ over unexposed control (TGFβ expression in MSC; 9.3 μg/mL): increased
- TGFβ over control (TGFβ expression in MSC; increasing doses): robust increase
